Reference: article PMC7395068, “The evolution of strategies to minimise the risk of human drug-induced liver injury (DILI) in drug discovery and development” (Archives of Toxicology, 2020)
Where two headings read alike, the source gives them in different places.

Key:
HepG2 cells [1] = settings: cited from earlier work
[2] = system: THLE or HepG2 cells, isolated mitochondria, BSEP; settings: cited from earlier work
[3] = cited from earlier work
RMPCC's = settings: cited from earlier work
human hepatocytes = settings: cited from earlier work
[4] = system: HepG2 C3A spheroid, BSEP, Glu/Gal in HepG2 cells, bioactivation; settings: cited from earlier work
HepG2 cells [5] = settings: cited from earlier work; remark: listed apart in the source
hu-MPCC = settings: cited from earlier work
[6] = cited from earlier work; remark: listed apart in the source
hLiMTs [7] = assay: Combined HCI (HCS) and cellular ATP 3D assay in hLiMTs; settings: Homo sapiens
[8] = in vivo; cited from earlier work
[9] = system: primary human hepatocytes, NIH3T3 fibroblasts, BSEP, CYP3A4; settings: cited from earlier work
PHH [10] = settings: cited from earlier work
HepaRG spheroids [11] = assay: Combined HCI (HCS) and cellular ATP 3D assay in HepaRG spheroids; settings: Homo sapiens, HepaRG
hLiMTs [12] = settings: cited from earlier work
[13] = human, in vivo; cited from earlier work
[14] = Plasma free fraction (fu) and unbound Cmax (Cmax,u); format: in vitro ADME, human; settings: human
Method: The prediction of DILI severity was evaluated further using the 3D combined HCI assays using plasma-free fraction. The majority of fu values were obtained from literature, when unavailable in-house prediction was utilised. Unbound plasma Cmax concentrations (Cmax,u) were derived by multiplying total plasma Cmax with the corresponding free fraction (fu) for each compound.

hLiMTs [15] = system: hLiMTs
HepaRG spheroids [16] = system: HepaRG spheroids
HepG2 cells [17] = settings: In vitro Assay; ref Persson 2013; cited from earlier work
PHH spheroids = settings: In vitro Assay; ref Vorrink 2018; cited from earlier work
[18] = system: isolated mouse liver mitochondria; settings: In vitro Assay; ref Porceddu 2012; cited from earlier work
HepG2 = system: HepG2; parameters: method as in Albrecht 2019; settings: In vitro Assay; ref Albrecht 2019; cited from earlier work
PHH [19] = settings: In vitro Assay; ref Albrecht 2019; cited from earlier work
[20] = In vitro Assay, ref O'Brien 2006
[21] = In vitro Assay, ref Khetani 2012
[22] = In vitro Assay, ref Proctor 2017

In the case of `C[C@H](CS)C(=O)N1CCC[C@H]1C(=O)O` [captopril], the “Structural based (HCI)” value (HepG2 cells [1]) is listed as “+VE”, the “Ro2 Hybrid HRM Score” value [2] is listed as “-VE” and the “DILI +VE (5-8), DILI -VE (-4)” value ([3]; in vivo) is listed as “+VE”. The DILI severity category ([3]; in vivo) was “vLess-DILI-Concern”, the “RMPCC's” value (RMPCC's) was “-VE” and the “Structural based (HCI)” value (human hepatocytes) was “-VE”. The “Bayesian Machine Learning” value [4] was “+VE”, the “Structural based (HCI)” value (HepG2 cells [5]) was “+VE” and the “HMPCC's” value (hu-MPCC) was “-VE”. The “In vivo DILI” value ([6]; in vivo) was “+VE”.

In the case of `O=P1(N(CCCl)CCCl)NCCCO1` (stereo not shown) [cyclophosphamide, reference compound], the “DILI in vitro assay prediction, O'Brien (2006)” value (HepG2 cells [1]) is given as “+VE (key: +VE: lowest HCI endpoint IC50 (or in the absence of dose–response < 100 µM) < 30 × total human plasma exposure levels (Cmax.tot))”, the “Structural based (HCI)” value (HepG2 cells [1]) is given as “+VE” and the AC50 (hLiMTs [7]; read-out: ATP endpoint AC50) is given as 906 µM. It also gave a minimal effective concentration (hLiMTs [7]; read-out: ATP endpoint MEC) of 613 µM, an AC50 (hLiMTs [7]; read-out: HCS endpoint AC50) of 992 µM and a minimal effective concentration (hLiMTs [7]; read-out: HCS endpoint MEC) of 236 µM. The “Partition Hybrid HRM Score” value [2] was “-VE”, the “Partition Hybrid HRM Score ≥4, Aleo (2019)” value [2] was “-VE” and the “Partition Hybrid HRM Score ≥8, Aleo (2019)” value [2] was “-VE”. For the same compound, the “Ro2 Hybrid HRM Score” value [2] was “-VE”, the “Rule of Two hybrid HRM Score ≥3, Aleo (2019)” value [2] was “-VE” and the “Rule of Two hybrid HRM Score ≥8, Aleo (2019)” value [2] was “-VE”. For the same compound, the “DILI +VE (5-8), DILI -VE (-4)” value ([3]; in vivo) was “+VE”, the “DILI severity category (Chen et al. [2016])” value ([3]; in vivo) was “Less” and the “DILI Score (FDA) (1-8)” value [8] was 5. For the same compound, the “Cellular toxicity (3T3 cells)” value [9] was “-VE”, the “DILI in vitro assay prediction, Schadt (2015)” value [9] was “-VE” and the “GSH adduct HML” value [9] was “-VE”. The Hepatocyte cellular toxicity [9] was “-VE”, the “MitoTox 3T3” value [9] was “-VE” and the “TDI CYP3A4” value [9] was “-VE”. The hBSEP inhibition [9] was “-VE”, the “RMPCC's” value (RMPCC's) was “+VE” and the “PHH ATP <100uM” value (PHH [10]) was “-VE”. For the same compound, the “PHH/100uM, Proctor (2017)” value (PHH [10]) was “-VE”, the AC50 (HepaRG spheroids [11]; read-out: ATP endpoint AC50) was 419 µM and the minimal effective concentration (HepaRG spheroids [11]; read-out: ATP endpoint MEC) was 229 µM. The AC50 (HepaRG spheroids [11]; read-out: HCS endpoint AC50) was 1860 µM, the minimal effective concentration (HepaRG spheroids [11]; read-out: HCS endpoint MEC) was 340 µM and the “hLiMTs ATP <100uM” value (hLiMTs [12]) was “-VE”. For the same compound, the “hLiMTs/100uM, Proctor (2017)” value (hLiMTs [12]) was “-VE”, the Cmax [13] was 143 µM and the “Human plasma Cmax,u” value [14] was 114.400 µM. For the same compound, the “DILI in vitro assay prediction, Xu (2008)” value (human hepatocytes) was “-VE”, the “Structural based (HCI)” value (human hepatocytes) was “-VE” and the “DILI prediction hLiMTs (HCS-MEC)” value (hLiMTs [15]) was “+VE (key: +VE: MEC < 25 × Cmax.tot cut-off)”. The “hLiMTs <10 uM All” value (hLiMTs [15]) was “-ve”, the “hLiMTs <100x Avg Cmaxu ATP” value (hLiMTs [15]; human) was “+ve (key: +ve: <100x Avg Cmaxu)” and the “hLiMTs <100x Avg Cmaxu All” value (hLiMTs [15]; human) was “+ve (key: +ve: <100x Avg Cmaxu)”. The “hLiMTs <100x Avg Cmaxu HCS” value (hLiMTs [15]; human) was “+ve (key: +ve: <100x Avg Cmaxu)”, the “hLiMTs Cmax max All” value (hLiMTs [15]; human) was “+ve” and the “hLiMTs Cmax min All” value (hLiMTs [15]; human) was “-ve”. For the same compound, the “DILI in vitro assay prediction, Tolosa (2012)” value (HepG2 cells [5]) was “-VE”, the “Structural based (HCI)” value (HepG2 cells [5]) was “+VE” and the “HMPCC's” value (hu-MPCC) was “+VE”. The “Assigned DILI category” value ([6]; in vivo) was 2, the “DILI prediction HepaRG spheroids (HCS-MEC)” value (HepaRG spheroids [16]) was “+VE (key: +VE: MEC < 25 × Cmax.tot cut-off)” and the “HepaRG <10 uM All” value (HepaRG spheroids [16]) was “-ve”. For the same compound, the “HepaRG <100x Avg Cmaxu ATP” value (HepaRG spheroids [16]; human) was “+ve (key: +ve: <100x Avg Cmaxu)”, the “HepaRG <100x Avg Cmaxu All” value (HepaRG spheroids [16]; human) was “+ve (key: +ve: <100x Avg Cmaxu)” and the “HepaRG <100x Avg Cmaxu HCS” value (HepaRG spheroids [16]; human) was “+ve (key: +ve: <100x Avg Cmaxu)”. For the same compound, the “HepaRG Cmax max All” value (HepaRG spheroids [16]; human) was “+ve” and the “HepaRG Cmax min All” value (HepaRG spheroids [16]; human) was “-ve”.

In the case of `CN(C)CCCN1c2ccccc2CCc2ccccc21` [imipramine], the “Structural based (HCI)” value (HepG2 cells [1]; [20]) is given as “+VE”, the “Ro2 Hybrid HRM Score” value ([2]; In vitro Assay, ref Aleo 2019) is given as “+VE” and the “DILI +VE (5-8), DILI -VE (-4)” value ([3]; ref Chen 2016) is given as “+VE”. For the same compound, the DILI severity category ([3]; ref Chen 2016) was “vLess-DILI-Concern”, the “RMPCC's” value (RMPCC's; [21]) was “-VE” and the “PHH ATP <100uM” value (PHH [10]; [22]) was “+VE (IC50 threshold of 100 µM)”. The “hLiMTs ATP <100uM” value (hLiMTs [12]; [22]) was “+VE (IC50 threshold of 100 µM)”, the “Structural based (HCI)” value (HepG2 cells [17]) was “+VE” and the “Bayesian Machine Learning” value ([4]; In vitro Assay, ref Williams 2019) was “+VE”. For the same compound, the “hLiMTs ATP <20 x Cmax” value (PHH spheroids) was “+VE (IC20 < 20 × Cmax.tot cut-off)”, the “Structural based (HCI)” value (HepG2 cells [5]; In vitro Assay, ref Tolosa 2012) was “+VE” and the “in vitro data EC2<=1x Cmax” value [18] was “-VE”. The “in vitro data EC20<=2uM” value [18] was “+VE”, the “HMPCC's” value (hu-MPCC; [21]) was “+VE” and the “In vivo DILI” value ([6]; […]) was “+VE”. For the same compound, the “In vivo DILI” value ([6]; ref Aleo 2019) was “+VE”, the “In vivo DILI” value ([6]; ref Garside 2014) was “+VE” and the “In vivo DILI” value ([6]; ref Khetani 2012) was “+VE”. For the same compound, the “In vivo DILI” value ([6]; ref O'Brien 2006) was “+VE”, the “In vivo DILI” value ([6]; ref Persson 2013) was “+VE” and the “In vivo DILI” value ([6]; ref Porceddu 2012) was “+VE”. The “In vivo DILI” value ([6]; ref Proctor 2017) was “+VE”, the “In vivo DILI” value ([6]; ref Schadt 2015) was “-VE” and the “In vivo DILI” value ([6]; ref Tolosa 2012) was “+VE”. The “In vivo DILI” value ([6]; ref Vorrink 2018) was “+VE”, the “In vivo DILI” value ([6]; ref Williams 2019) was “+VE” and the “In vivo DILI” value ([6]; ref Xu 2008) was “+VE”.

In the case of `CCCCC1C(=O)N(c2ccccc2)N(c2ccccc2)C1=O` [phenylbutazone], the “Structural based (HCI)” value (HepG2 cells [1]; [20]) is listed as “+VE”, the “Cytotoxicity HepG2 48 hrs” value (HepG2) is listed as “+VE” and the “RMPCC's” value (RMPCC's; [21]) is listed as “+VE”. The “Cytotoxicity PHH 48 hrs” value (PHH [19]) was “+VE”, the “in vitro data EC2<=1x Cmax” value [18] was “+VE” and the “HMPCC's” value (hu-MPCC; [21]) was “+VE”. For the same compound, the “In vivo DILI” value ([6]; in vivo) was “+VE”.
